Results: article PMC10946451, “Engineering a Carboxyl Methyltransferase for the Formation of a Furan‐Based Bioplastic Precursor” (Chemsuschem, 2023)

Molecular target: T1, FtpM (WT FtpM) (Aspergillus fumigatus, UniProt Q4WZ45)
T1 construct: gene AFUA_3G15280; codon-optimised gene in pET-based golden gate vector, C-terminal His tag, expressed in E. coli, HisTrap purified; monomer and dimer modelled by AlphaFold 2
T1 sequence (Q4WZ45 1-282): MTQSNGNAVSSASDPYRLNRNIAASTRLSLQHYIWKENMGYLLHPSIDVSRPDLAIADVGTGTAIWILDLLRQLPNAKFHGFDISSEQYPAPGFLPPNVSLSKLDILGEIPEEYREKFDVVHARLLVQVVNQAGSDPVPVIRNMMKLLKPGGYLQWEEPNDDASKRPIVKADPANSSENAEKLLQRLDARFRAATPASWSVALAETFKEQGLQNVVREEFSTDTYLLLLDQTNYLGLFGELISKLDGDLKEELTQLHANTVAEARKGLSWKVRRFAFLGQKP
Experiment: steady-state kinetics of carboxyl methylation (Michaelis-Menten; previously reported method)
Type: biochemical
Details: co-substrate SAM, kinetic assay conditions not printed (reactions: 50 mM MES pH 6.0, 25 °C)

Structure (SMILES)	Km (first methylation) [µM]	Km (second methylation) [µM]
O=C(O)c1ccc(C(=O)O)o1 [compound 2, 2,5-furandicarboxylic acid]	520	
COC(=O)c1ccc(C(=O)O)o1 [compound 3, FMME]		1400
